Molecules are shown by their SMILES.

Consider one molecule from patent publication US10376552B2, “Memory improving composition comprising arillus longan, semen nelumbinis, poria and semen juglandis” (priority 2015, dated 2019).

The test system of data set [1] is scopolamine hydrobromide induced memory acquired disorder in mice. The data set can be described thus: Step-down test. Conditions: 0.1 mg/kg. The format is in vivo, Kunming mice. As to the method: Mice were randomly divided into 5 groups, namely, normal control group, model group, low dosage group, high dosage group, positive control drug Huperzine A group (0.1 mg/kg). The mice were intragastrically administered once daily (0.2 mL/10 g). After 30 consecutive days, except the normal control group, the memory acquired disorder model of mice was replicated respectively with […] of scopolamine hydrobromide, and the learning performance of mice was determined with the step-down test.
(§1) In accordance with technical requirements including “technical specifications of health food inspection and evaluation”, the dosage was calculated by conversion of the intended clinical daily dosage on the basis of the body surface area. When orally administered to mice, low and high dosages were arranged for each sample, respectively, which correspond to about 10 and 20 times of intended daily dosage for adults. Namely: low dosage group (1.3 g/kg), high dosage group (2.6 g/kg).
The time of the first jumping of mice (i.e., latency) and the times of jumping of mice within 5 minutes (i.e., errors times) were tested and recorded with jumping apparatus, and the latency and error times were used as the investigation indexes of the experiment.
60 screened healthy adult Kunming mice were used, with body weight (20-24) g, male, 12 […] in each group. Mice were randomly divided into 5 groups, namely, normal control group (C), model group (M), low dosage group (1.3 g/kg), high dosage (2.6 g/kg), positive control drug Huperzine A group (0.1 mg/kg). Except that the normal control group and model group were intragastrically administered with 0.5% CMCNA (0.2 mL/10 g), other groups were intragastrically administered with corresponding drugs once daily for 30 consecutive days. Training was started 1 h after administration in the morning on day 30. Except the normal control group, the memory acquired disorder model of mice was replicated respectively with 2 mg/kg scopolamine hydrobromide 20 minutes before training. Each group was administered in parallel, and the learning performance of mice was determined by step-down test. […]
(1) adaptive period: the animals were placed on the platform, at that time the electric fence was not energized, the latency of jumping down the platform was recorded, the animals were allowed to freely explore 10 s in the test box after jumping down the platform, and were then returned to the cage; […]
The learning performance was tested after 24 h. The time of the first jumping of mice (i.e., latency) and the times of jumping of mice within 5 minutes (i.e., errors times) were tested and recorded with jumping apparatus, and the latency and error times were used as the investigation indexes of the experiment.

Data set [2] concerns scopolamine memory acquired disorder model of mice. The data set can be described thus: Morris water maze, orientation navigation test. The format is in vivo. Conditions: 0.1 mg/kg. How it is done:
(§2) Mice were randomly divided into 5 groups evenly, namely, normal control group, model group, low dosage group, high dosage group, positive control drug Huperzine A group (0.1 mg/kg). The mice were intragastrically administered once daily (0.2 mL/10 g). After 30 consecutive days, except the normal control group, the memory acquired disorder model of mice was replicated respectively with scopolamine, and the learning performance of mice was determined with the Morris water maze test (scopolamine-induced orientation navigation and spatial memory experiment).
as §1
(§3) As for the positive control drug Huperzine A, the clinical adult dosage is about 0.4 mg/day, and the dosage for mice is 0.06 mg/kg, which is calculated by conversion on the basis of the body surface area. 0.1 mg/kg was used in the present experiment.
(§4) Morris water maze test was carried out according to the method in references. The orientation navigation test was started from the 25th day, and lasted for 4 consecutive days. The time of finding the platform of mice within 90 s (the escape latency), swimming distance, the swimming time proportion in the quadrant of the original platform, times of crossing the location of the original platform (i.e., shuttle times), and the time of first arrival at the original platform were recorded.
(§5) Mice were randomly divided into 5 groups, namely, normal control group, model group, low dosage group (1.3 g/kg), high dosage group (2.6 g/kg), positive control drug Huperzine A group (0.1 mg/kg). The mice were intragastrically administered once daily (0.2 mL/10 g). After 30 consecutive days, except the normal control group, the memory acquired disorder model of mice was replicated respectively with scopolamine, and the learning performance of mice was determined with the Morris water maze test (scopolamine-induced orientation navigation and spatial memory experiment).
(§6) In this example, respective groups of animals were adaptively fed for 3 days before intragastrical administration. The normal control group and model control group were intragastrically administered once daily with equal volume of 0.5% CMCNA, respectively. The administration was carried out with a volume of 0.2 mL/10 g body weight for 30 consecutive days. Morris water maze test was carried out according to the method in literatures. The orientation navigation test was started from the 25th day, and lasted for 4 days. The time of finding the platform of mice within 90 s (the escape latency), swimming distance, the swimming time proportion in the quadrant of the original platform, times of crossing the location of the original platform (i.e., shuttle times), and the time of first arrival at the original platform were recorded.

The conditions of data set [3]: clinical use as cholinesterase inhibitor; cited from earlier work.
The test system of data set [4] is scopolamine hydrobromide-induced mice memory acquired disorder model. The data set can be described thus: Morris water maze, space exploration test. The format is in vivo. Conditions: 0.1 mg/kg. As to the method: as §2, §1, §3, §4, §5, §6

In data set [1], `C/C=C1\[C@H]2C=C(C)C[C@]1(N)c1ccc(=O)[nH]c1C2` [Huperzine A] returned a Latency of 146.20 ± 99.97 s. In data set [1] (p<0.05), the “error times compared with the model group” value was “significantly reduced” and the “latency compared with the model group” value is “significantly prolonged”. The same molecule returned an Error times in data set [1] (within 5 minutes) of 1.00 ± 0.82. Besides, in data set [2] (Day 1), the swimming distance is on record as 892.9 ± 226.6 cm and the swimming latency stood at 68.3 ± 15.6 s. In data set [2] (Day 2), this molecule registered a swimming distance of 747.2 ± 93.5 cm and a swimming latency of 59.1 ± 13.8 s. In data set [2] (Day 3), the swimming distance came out at 683.3 ± 112.8 cm and the swimming latency came to 56.3 ± 13.1 s. In data set [2] (Day 4), this molecule gave a swimming distance of 669.6 ± 128.3 cm and a swimming latency of 48.8 ± 11.1 s. The side-effects after ingestion entry in data set [3] was “nausea, dizziness, sweating, abdominal pain, and blurred vision”. In addition, in data set [4], the Shuttle times is on record as 2.2 ± 0.5, the “Time proportion of crossing the original quadrant” value came out at 22.6 ± 7.9% and the “time of first arrival at the platform” value is reported as 27.0 ± 12.1 s. In addition, in data set [4] (p<0.05), the “time of first arrival at the platform” value is recorded as “significantly prolonging” and the “times of crossing the location of the original platform” value was “significantly decreased”.
